Results published in ChEMBL document CHEMBL3769379, “SAR Studies of 5-Aminopyrazole-4-carboxamide Analogues as Potent and Selective Inhibitors of Toxoplasma gondii CDPK1” (ACS Med Chem Lett, 2015).
Active and inactive are the calls of the source. No cut-off for these calls is given here.

Legend:
[1] = Cytotoxicity against human CRL8155 cells after 48 hrs by Alamar Blue assay; format: cell-based; settings: crl8155, 48 h
[2] = target: T1, Calmodulin-domain protein kinase 1 (Toxoplasma gondii, UniProt Q9BJF5)
T1 sequence (Q9BJF5 whole entry): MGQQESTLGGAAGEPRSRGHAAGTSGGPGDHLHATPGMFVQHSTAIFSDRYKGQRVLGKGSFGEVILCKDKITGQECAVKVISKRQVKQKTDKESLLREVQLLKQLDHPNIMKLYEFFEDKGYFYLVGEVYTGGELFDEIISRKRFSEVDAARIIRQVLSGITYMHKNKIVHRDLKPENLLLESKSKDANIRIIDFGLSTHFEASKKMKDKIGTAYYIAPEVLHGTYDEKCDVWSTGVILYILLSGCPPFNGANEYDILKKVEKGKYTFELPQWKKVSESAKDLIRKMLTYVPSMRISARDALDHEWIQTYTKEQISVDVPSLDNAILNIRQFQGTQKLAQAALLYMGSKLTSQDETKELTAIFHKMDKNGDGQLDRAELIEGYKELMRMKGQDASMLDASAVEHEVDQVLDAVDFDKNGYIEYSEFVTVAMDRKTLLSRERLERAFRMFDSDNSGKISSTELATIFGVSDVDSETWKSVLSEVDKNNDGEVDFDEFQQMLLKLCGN

[3] = target: Proto-oncogene tyrosine-protein kinase Src (Homo sapiens, UniProt P12931)
Proto-oncogene tyrosine-protein kinase Src, sequence (P12931 2-536 limits assumed): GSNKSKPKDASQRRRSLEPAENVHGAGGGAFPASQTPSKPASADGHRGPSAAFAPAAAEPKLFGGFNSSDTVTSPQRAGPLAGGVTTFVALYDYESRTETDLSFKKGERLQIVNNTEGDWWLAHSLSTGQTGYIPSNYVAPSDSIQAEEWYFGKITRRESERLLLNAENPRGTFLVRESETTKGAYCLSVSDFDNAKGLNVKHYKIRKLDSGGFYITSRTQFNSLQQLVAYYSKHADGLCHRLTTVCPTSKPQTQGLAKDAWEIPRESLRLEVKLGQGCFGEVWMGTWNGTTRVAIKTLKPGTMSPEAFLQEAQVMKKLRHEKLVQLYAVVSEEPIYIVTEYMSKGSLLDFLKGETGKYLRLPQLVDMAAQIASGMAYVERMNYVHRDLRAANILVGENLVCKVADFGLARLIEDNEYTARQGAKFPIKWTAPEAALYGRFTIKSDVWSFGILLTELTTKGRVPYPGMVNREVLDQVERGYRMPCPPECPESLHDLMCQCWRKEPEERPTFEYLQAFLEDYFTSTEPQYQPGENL

Toxoplasma gondii [4] = experiment: Antiprotozoan activity against Toxoplasma gondii RH infected in CF-1 mouse assessed as reduction of parasite burden in peritoneal fluid at 5 to 10 mg/kg, po bid administered for 5 days measured 24 hrs post last dose by hemocytometer-based fluorescence microscopy; format: functional, organism-based
[5] = human, plasma, 4 h
Description: Fraction unbound in human plasma after 4 hrs by LC/MS analysis

Mus musculus [6] = experiment: Toxicity in CF-1 mouse infected with Toxoplasma gondii RH assessed as weight loss at 5 to 40 mg/kg, po bid administered for 5 days; format: organism-based; settings: in vivo, 120 h
Mus musculus [7] = experiment: Toxicity in CF-1 mouse infected with Toxoplasma gondii RH assessed as altered grooming at 5 to 40 mg/kg, po bid administered for 5 days; format: organism-based; settings: in vivo, 120 h
Toxoplasma gondii [8] = experiment: Antiprotozoan activity against Toxoplasma gondii RH infected in CF-1 mouse assessed as reduction of parasite burden in peritoneal fluid at 20 to 40 mg/kg, po bid administered for 5 days measured 24 hrs post last dose by hemocytometer-based fluorescence microscopy relative to control; format: functional
[9] = Solubility of the compound in PBS incubated overnight at pH 6.5 by HPLC-UV analysis; format: physicochemical; settings: buffer
[10] = Ratio of drug level in brain to plasma in mouse at 5 mg/kg, ip by LC/MS analysis; format: ADME, organism-based
Mus musculus [11] = experiment: Toxicity in CF-1 mouse infected with Toxoplasma gondii RH assessed as lethargy at 5 to 40 mg/kg, po bid administered for 5 days; format: organism-based; settings: in vivo, 120 h
Mus musculus [12] = experiment: Toxicity in CF-1 mouse infected with Toxoplasma gondii RH assessed as mortality at 50 mg/kg, po qd administered for 5 days measured on day 5; format: organism-based; settings: in vivo, 120 h
Mus musculus [13] = experiment: Toxicity in CF-1 mouse infected with Toxoplasma gondii RH assessed as lethargy at 20 mg/kg, po qd administered for 5 days; format: organism-based; settings: in vivo, 120 h
Toxoplasma gondii [14] = experiment: Antiprotozoan activity against Toxoplasma gondii RH infected in CF-1 mouse assessed as reduction of parasite burden in brain at 20 to 50 mg/kg, po qd administered for 5 days measured 24 hrs post last dose by quantitative RT-PCR analysis relative to control; format: functional
Toxoplasma gondii [15] = experiment: Antiprotozoan activity against Toxoplasma gondii overexpressing wild type CDPK1 infected in fibroblasts assessed as growth inhibition at low concentration after 2 days by beta-galactosidase reporter assay; format: functional, organism-based
Toxoplasma gondii [16] = experiment: Antiprotozoan activity against Toxoplasma gondii infected in fibroblasts assessed as growth inhibition at low concentration after 2 days by beta-galactosidase reporter assay; format: functional, organism-based
Mus musculus [17] = experiment: Toxicity in CF-1 mouse infected with Toxoplasma gondii RH assessed as weight loss at 20 to 50 mg/kg, po qd administered for 5 days; format: organism-based; settings: in vivo, 120 h
Mus musculus [18] = experiment: Toxicity in CF-1 mouse infected with Toxoplasma gondii RH assessed as altered grooming at 20 to 50 mg/kg, po qd administered for 5 days; format: organism-based; settings: in vivo, 120 h
Mus musculus [19] = experiment: Toxicity in CF-1 mouse infected with Toxoplasma gondii RH assessed as lethargy at 20 to 50 mg/kg, po qd administered for 5 days; format: organism-based; settings: in vivo, 120 h

For `CCCOc1ccc2cc(-c3nn(C(C)(C)C)c(N)c3C(N)=O)cnc2c1`, the Activity [1] was over 40 µM.

`CCOc1ccc2cc(-c3nn(C4CCCCC4)c(N)c3C(N)=O)ccc2n1` gave an Activity [1] of over 40 µM and an IC50 [2] of 5.5 nM.

In the case of `CC(C)(C)n1nc(-c2cnc3cc(OCC4CC4)ccc3c2)c(C(N)=O)c1N`, the IC50 [3] is reported as over 10000 nM and the Activity [1] is reported as over 40 µM.

`COc1ccc2cc(-c3nn(C(C)(C)C)c(N)c3C(N)=O)cnc2c1` showed an Activity [1] of over 40 µM.

With `CCOc1ccc2cc(-c3nn(C4CCCCCC4)c(N)c3C(N)=O)cnc2c1` the Activity [1] was over 40 µM.

With `CCOc1ccc2cc(-c3nn(C(C)C)c(N)c3C(N)=O)ccc2n1` the Activity [1] was over 40 µM and the IC50 [2] was 6.5 nM.

For `CCOc1ccc2cc(-c3nn(C(C)(C)C)c(N)c3C(N)=O)cnc2c1`, the Activity (Toxoplasma gondii [4]) was “Active”, the Fu [5] was 57% and the Activity (Mus musculus [6]) was “Non-toxic”. For the same molecule, the Activity (Mus musculus [7]) was “Non-toxic”, the “fold change (FC)” value (Toxoplasma gondii [8]) was over 10 and the solubility [9] was “Insoluble”. The BPR [10] was 15.8% and the Activity (Mus musculus [11]) was “Non-toxic”.

In the case of `CCOc1ccc2cc(-c3nn(C4CCCC4)c(N)c3C(N)=O)cnc2c1`, the Activity [1] is reported as over 40 µM.

Molecule `CC(C)(C)n1nc(-c2cnc3cc(F)ccc3c2)c(C(N)=O)c1N` has an Activity [1] of over 40 µM.

For `CCOc1ccc2cc(-c3nn(CC(C)(C)CO)c(N)c3C(N)=O)ccc2n1`, the solubility [9] was “soluble” and the Activity [1] was over 40 µM.

In the case of `CC(C)(C)n1nc(-c2ccc3nc(OC4CC4)ccc3c2)c(C(N)=O)c1N`, the Activity (Mus musculus [12]) is reported as “Toxic”, the Activity (Mus musculus [13]) is reported as “Non-toxic” and the “fold change (FC)” value (Toxoplasma gondii [14]) is reported as over 5. The Fu [5] was 88%, the Activity [1] was over 40 µM and the “growth inhibition (GI)” value (Toxoplasma gondii [15]) was “inactive”. For the same molecule, the “growth inhibition (GI)” value (Toxoplasma gondii [16]) was “inactive”, the BPR [10] was 43% and the Activity (Mus musculus [17]) was “Non-toxic”. For the same molecule, the IC50 [2] was 4.6 nM and the Activity (Mus musculus [18]) was “Non-toxic”.

For `CCOc1ccc2cc(-c3nn(CC4CC4)c(N)c3C(N)=O)cnc2c1`, the Activity [1] was over 40 µM and the IC50 [2] was 15 nM.

For `CC(C)(C)n1nc(-c2cnc3cc(OC4CCC4)ccc3c2)c(C(N)=O)c1N`, the solubility [9] was “Insoluble”, the Activity [1] was over 40 µM and the IC50 [2] was 7 nM.

Molecule `CCOc1ccc2cc(-c3nn(CC(C)(C)CO)c(N)c3C(N)=O)cnc2c1` has an IC50 [3] of over 10000 nM and an Activity [1] of over 40 µM.

`CCOc1ccc2cc(-c3nn(C(C)(C)C)c(N)c3C(N)=O)ccc2n1` gave an Activity [1] of over 40 µM.

`CCOc1ccc2cc(-c3nn(C(C)CO)c(N)c3C(N)=O)cnc2c1` (centres undefined) showed an IC50 [2] of 26 nM.

In the case of `CCOc1ccc2cc(-c3nn(CC4CC4)c(N)c3C(N)=O)ccc2n1`, the Activity [1] is reported as over 40 µM and the IC50 [2] is reported as 7.9 nM.

For `CCOc1ccc2cc(-c3nn(C4CCCCCC4)c(N)c3C(N)=O)ccc2n1`, the IC50 [2] was 17 nM.

For `CC(C)(C)n1nc(-c2cnc3cc(OC4CC4)ccc3c2)c(C(N)=O)c1N`, the Activity (Mus musculus [19]) was “Non-toxic”, the solubility [9] was “soluble” and the Activity [1] was over 40 µM. The “growth inhibition (GI)” value (Toxoplasma gondii [15]) was “inactive”, the “growth inhibition (GI)” value (Toxoplasma gondii [16]) was “inactive” and the BPR [10] was 16%. The Activity (Mus musculus [17]) was “Non-toxic” and the Activity (Mus musculus [18]) was “Non-toxic”.

`CCOc1ccc2cc(-c3nn(C4CCC4)c(N)c3C(N)=O)cnc2c1` showed an Activity [1] of over 40 µM.

`CC(C)(C)n1nc(-c2ccc3nc(OC4CCC4)ccc3c2)c(C(N)=O)c1N` gave an Activity [1] of over 40 µM and an IC50 [2] of 12 nM.

In the case of `CC(C)Oc1ccc2cc(-c3nn(C(C)(C)C)c(N)c3C(N)=O)cnc2c1`, the Activity [1] is reported as over 40 µM and the IC50 [2] is reported as 16 nM.

Molecule `CC(C)(C)n1nc(-c2cnc3cc(OC(F)(F)F)ccc3c2)c(C(N)=O)c1N` has an IC50 [2] of 39 nM.

Molecule `CCOc1ccc2cc(-c3nn(CC(C)(C)O)c(N)c3C(N)=O)cnc2c1` has an IC50 [2] of 113 nM.
